Data set [1] has as its target Mitogen-activated protein kinase 10 (Homo sapiens, UniProt P53779). Kind of data set: Inhibition of JNK3 (unknown origin) using biotinylated ATF2 by HTRF method. Background: In TR-FRET formats the signal depends on donor and acceptor labels being close together.
The target of data set [2] is Mitogen-activated protein kinase 9 (Homo sapiens, UniProt P45984). As to the kind of experiment: Inhibition of JNK2 (unknown origin) using biotinylated ATF2 by HTRF method.
Data set [3] in a line: Inhibition of JNK in rat INS cells assessed as inhibition of c-jun phosphorylation. The format is cell-based.
Data set [4] can be described thus: Half life in Sprague-Dawley rat at 1 mg/kg, iv and 2 mg/kg, po by LC-MS/MS analysis. Type of data set: ADME, organism-based. Particulars: in vivo.
A further data set relates to Brain. Kind of data set: Drug penetration in C57Bl6 mouse brain at 10 mg/kg by LC-MS/MS analysis relative to control. Conditions: in vivo. On the set-up: dose 10 mg/kg. The format is ADME, organism-based.
Data set [5] can be described thus: Drug uptake in C57Bl6 mouse brain at 10 mg/kg after 2 hrs by LC-MS/MS analysis. The arrangement: dose 10 mg/kg. Conditions: read-out: Drug uptake. The format is ADME, organism-based.
Data set [6] can be described thus: (§1) Oral bioavailability in Sprague-Dawley rat at 2 mg/kg by LC-MS/MS analysis. The format is ADME, organism-based. Particulars: Sprague-Dawley, in vivo.
Data set [7] in a line: Clearance in Sprague-Dawley rat at 1 mg/kg, iv and 2 mg/kg, po by LC-MS/MS analysis. Particulars: in vivo. The format is ADME, organism-based.
Data set [8] can be described thus: Plasma concentration in C57Bl6 mouse at 10 mg/kg after 2 hrs by LC-MS/MS analysis. The arrangement: dose 10 mg/kg. The format is ADME, organism-based.
A short description of data set [9]: (§2) AUC in Sprague-Dawley rat at 2 mg/kg, po by LC-MS/MS analysis. On the set-up: dose 2 mg/kg, route oral. Particulars: Sprague-Dawley, plasma. The format is ADME, organism-based, Plasma.
Data set [10] addresses T1, c-Jun N-terminal kinase, JNK (Homo sapiens, UniProt P45983+P53779+P45984). Particulars: U-87MG ATCC.
Description: Inhibition of JNK in human U87MG cells overexpressing EGFR V3 mutant assessed as inhibition of c-jun phosphorylation at 0.1 to 3 uM after 6 hrs by Western blotting analysis
Data set [11] concerns the target T1, c-Jun N-terminal kinase, JNK. As to the kind of experiment: Inhibition of JNK in human U87MG cells overexpressing EGFR V3 mutant assessed as inhibition of c-jun phosphorylation after 6 hrs by ELISA. The format is cell-based. Particulars: u-87mg atcc. A general note: ELISA stands for enzyme-linked immunosorbent assay.
Data set [12] has as its system Rattus norvegicus. The description is as §1. Type of data set: ADME, organism-based. Conditions: in vivo.
For data set [13], the system named is Rattus norvegicus. The data set is described as §2. Type of data set: ADME, organism-based, Plasma. The arrangement: dose 2 mg/kg, route oral. Particulars: in vivo.

Molecules are shown by their SMILES. Active and inactive are the calls of the source.

Sequence of Mitogen-activated protein kinase 9 (P45984 whole entry): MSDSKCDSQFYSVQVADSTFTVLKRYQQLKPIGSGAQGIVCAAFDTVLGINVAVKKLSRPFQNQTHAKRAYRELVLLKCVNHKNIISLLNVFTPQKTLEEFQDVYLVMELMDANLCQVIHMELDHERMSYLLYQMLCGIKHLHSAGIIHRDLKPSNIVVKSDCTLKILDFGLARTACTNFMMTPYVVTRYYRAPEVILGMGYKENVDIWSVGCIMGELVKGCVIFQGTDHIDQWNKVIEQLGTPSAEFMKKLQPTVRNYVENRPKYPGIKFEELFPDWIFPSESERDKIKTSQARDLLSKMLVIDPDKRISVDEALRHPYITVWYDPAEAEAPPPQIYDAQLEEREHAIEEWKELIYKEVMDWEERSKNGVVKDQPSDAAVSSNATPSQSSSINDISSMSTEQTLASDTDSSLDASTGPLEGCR
Sequence of Mitogen-activated protein kinase 10 (P53779 whole entry): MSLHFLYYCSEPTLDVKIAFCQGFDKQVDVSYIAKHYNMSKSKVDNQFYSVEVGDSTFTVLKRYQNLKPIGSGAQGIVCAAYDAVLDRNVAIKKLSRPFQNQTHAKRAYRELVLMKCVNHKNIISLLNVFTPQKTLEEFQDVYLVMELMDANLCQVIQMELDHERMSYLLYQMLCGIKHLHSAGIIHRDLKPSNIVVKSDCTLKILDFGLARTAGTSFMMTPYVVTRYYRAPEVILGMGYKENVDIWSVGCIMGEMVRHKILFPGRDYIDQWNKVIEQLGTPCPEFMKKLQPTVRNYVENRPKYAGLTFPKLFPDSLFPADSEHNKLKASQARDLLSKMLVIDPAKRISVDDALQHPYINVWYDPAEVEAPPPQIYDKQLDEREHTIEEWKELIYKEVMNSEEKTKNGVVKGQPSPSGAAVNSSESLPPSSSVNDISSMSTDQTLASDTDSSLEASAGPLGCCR

A word on the IC50: it is the concentration needed to halve the response being measured. The molecule `COc1cc(Nc2cc(Nc3ccccc3C(N)=O)ccn2)ccc1N1CCOCC1` came in with an IC50 in data set [1] of 132 nM.

For `N#Cc1ccc(Nc2ncc(Cl)c(Nc3ccccc3C(N)=O)n2)cc1`, the IC50 came to 0.77 nM in data set [1] and 0.71 nM in data set [2].

`CNC(=O)c1ccccc1Nc1cc(Nc2ccc(N3CCOCC3)cc2OC)ncc1C(F)(F)F` [VS-4718]: the figures for the IC50 in data set [1], in [2] and in data set [3] were 160 nM, 120 nM and more than 3000 nM, respectively.

One may read the half-life as the time needed for the level to fall by half in the phase considered. Low readings indicate rapid decline, high ones slow decline. By bioavailability is commonly meant dose-corrected exposure relative to a reference, in per cent. Usually AUC stands for the area under the concentration-time curve, a measure of exposure. As for `NC(=O)c1ccccc1Nc1nc(Nc2ccc(N3CCCC3=O)cc2)ncc1Cl`, in [4], the half-life was 0.6 h. The molecule also had a Drug uptake in the data set on Brain of 2%. Also, the IC50 in [1] amounted to 0.16 nM; in data set [2], 0.24 nM. In addition, the results for the concentration at 2 h in data set [5] and in [8] were 15 nM and 680 nM, respectively. The molecule also displayed a bioavailability in data set [6] of 3%. The same molecule had a clearance in [7] of 10 mL/min/kg. In data set [9], this molecule had an AUC of 0.2 µM·h.

`CNC(=O)c1ccccc1Nc1cc(Nc2ccc(N3CCOCC3)cc2OC)ncc1Br`: the IC50 in data set [1] was 68 nM; in [2], 82 nM.

`NC(=O)c1ccccc1Nc1ccnc(Nc2ccc(N3CCOCC3)cc2)c1`: the IC50 in [1] came to 160 nM; in [2], 329 nM.

As for `CNC(=O)c1ccccc1Nc1nc(Nc2ccc(N3CCOCC3)cc2OC)ncc1Cl`, the inhibition result in data set [10] is “Active”. For the same molecule, in data set [3], the IC50 came to 485 nM.

In data set [1], `COc1cc(N2CCOCC2)ccc1Nc1cc(Nc2ccccc2C(=O)N(C)C)c(C(F)(F)F)cn1` registered an IC50 of 1000 nM.

`O=C(NCc1ccccc1)c1ccccc1Nc1ccnc(Nc2ccc(N3CCOCC3)cc2)c1` had an IC50 in [1] of more than 20000 nM.

In turn, `NC(=O)c1ccccc1Nc1nc(Nc2ccc(N3CCOCC3)cc2)ncc1Cl` had a half-life in data set [4] of 1 h. This molecule registered a Drug uptake in the data set on Brain of 100%. Also, the IC50 in data set [1] turned out to be 0.28 nM; in [2] it was 1 nM. Further, the results for the concentration at 2 h in data set [5] and in data set [8] were 830 nM and 840 nM, respectively. Moreover, the bioavailability in data set [6] came to 8%. The same molecule yielded a clearance in data set [7] of 59 mL/min/kg. Further, the AUC in [9] came to 0.1 µM·h.

For `CNC(=O)c1ccccc1Nc1ccnc(Nc2ccc(N3CCOCC3)cc2)c1`, in data set [1], 3100 nM corresponded to half-maximal inhibition (IC50).

On to `CNC(=O)c1ccccc1Nc1cc(Nc2ccc(N3CCOCC3)cc2OC)ncc1F`, for which the IC50 in data set [1] was found to be 320 nM; in [2], 590 nM.

In turn, `CN(C)CCNC(=O)c1ccccc1Nc1ccnc(Nc2ccc(N3CCOCC3)cc2)c1` displayed an IC50 in [1] of more than 20000 nM.

`NC(=O)c1ccccc1Nc1nc(Nc2ccc(N3CCOCC3)cc2F)ncc1Cl`: the IC50 in data set [1] came to 0.3 nM; in data set [2], 0.6 nM.

On to `O=C(Nc1ccccc1)c1ccccc1Nc1ccnc(Nc2ccc(N3CCOCC3)cc2)c1`, for which the IC50 in data set [1] came to 12000 nM.

Consider `NC(=O)c1ccccc1Nc1nc(Nc2ccc(Cl)cc2)ncc1Cl`, for which the IC50 in data set [1] turned out to be 2.5 nM; in data set [2], 34 nM.

`NC(=O)c1ccccc1Nc1nc(Nc2ccc(F)cc2)ncc1Cl`: the IC50 in data set [1] was determined as 1.2 nM; in data set [2], 2.5 nM.

Molecule `O=C1NCc2cccc(Nc3ccnc(Nc4ccc(N5CCOCC5)cc4)c3)c21` displayed an IC50 in [1] of 1800 nM.

Regarding `COc1ccc(Nc2ncc(Cl)c(Nc3ccccc3C(N)=O)n2)cc1`, the IC50 in data set [1] amounted to 0.42 nM; in [2], 1 nM.

Take `Cc1cc(Nc2ncc(Cl)c(Nc3ccccc3C(N)=O)n2)ccc1N1CCOCC1`: the IC50 came to 0.31 nM in data set [1] and 0.69 nM in [2].

As to `CNC(=O)c1ccccc1Nc1cc(Nc2ccc(N3CCOCC3)cc2OC)ncc1C#N`, the IC50 in data set [1] is 510 nM; in [2] it was more than 3000 nM.

For orientation: EC50 means the concentration giving half of the maximal effect. On to `COc1cc(Nc2ncc(Cl)c(Nc3ccccc3C(N)=O)n2)ccc1N1CCOCC1`, for which, in data set [4], the half-life was 1 h. Besides, the Drug uptake in the data set with Brain is 31%. For the same molecule, the IC50 came to 0.28 nM in [1] and 0.68 nM in data set [2]. Besides, the concentration at 2 h in data set [5] stood at 800 nM; in data set [8] it was 2600 nM. In addition, the inhibition result in data set [10] is “Active”. In addition, in [11], the EC50 came to 23 nM. Further, the F in the data set on Rattus norvegicus [12] is on record as 17%. The molecule also returned an AUC in the data set on Rattus norvegicus [13] of 1.3 µM·h.

Turning to `CNC(=O)c1ccccc1Nc1cc(Nc2ccc(N3CCOCC3)cc2OC)ncc1Cl`, the figures for the IC50 in data set [1] and in data set [2] were 83 nM and 50 nM, respectively.

In the case of `COc1cc(N2CCOCC2)ccc1Nc1ncc(Cl)c(Nc2ccccc2C(N)=O)n1`, in data set [4], the half-life was 1 h. The molecule also yielded a Drug uptake in the data set on Brain of 17%. Besides, the IC50 in data set [1] is 0.78 nM; in [2], 3 nM; in [3], 3 nM. In addition, the concentration at 2 h in data set [5] was found to be 930 nM; in data set [8], 5500 nM. The F in the data set on Rattus norvegicus [12] is reported as 30%. The same molecule came in with an AUC in the data set with Rattus norvegicus [13] of 0.4 µM·h.

Molecule `COc1cc(N2CCOCC2)ccc1Nc1cc(Nc2ccccc2C(N)=O)ccn1` yielded an IC50 in [1] of 374 nM.

Consider `CNC(=O)c1ccccc1Nc1cc(Nc2ccc(N3CCOCC3)cc2)ncc1C(F)(F)F`, for which the IC50 was 61 nM in data set [1] and 90 nM in data set [2].

Regarding `NC(=O)c1ccccc1Nc1nc(Nc2ccc(N3CCOCC3)c(F)c2)ncc1Cl`, the IC50 turned out to be 0.25 nM in data set [1] and 0.51 nM in data set [2].

The values are drawn from ChEMBL document CHEMBL3217652, “Synthesis and SAR of 2,4-diaminopyrimidines as potent c-jun N-terminal kinase inhibitors” (Medchemcomm, 2012).
